Calls of active or inactive are those of the source.
Assays:
[1] = biological target: Intestinal-type alkaline phosphatase (Homo sapiens, UniProt P09923); assay: Dose Response confirmation of uHTS hits from a small molecule inhibitors of human intestinal alkaline phosphatase via a luminescent assay. [Related pubchem assays (depositor defined):AID2544, AID2574]; type: functional
[2] = biological target: T1, Short transient receptor potential channel 4 (Mus musculus, UniProt Q9QUQ5); assay: TRPC4 positive allosteric modulators, dose response, cell-based, HEK293 TRPC4/mu-opioid, Fluo-4 calcium, EC20 DAMGO (AID 434941); type: functional
T1 sequence (Q9QUQ5 whole entry): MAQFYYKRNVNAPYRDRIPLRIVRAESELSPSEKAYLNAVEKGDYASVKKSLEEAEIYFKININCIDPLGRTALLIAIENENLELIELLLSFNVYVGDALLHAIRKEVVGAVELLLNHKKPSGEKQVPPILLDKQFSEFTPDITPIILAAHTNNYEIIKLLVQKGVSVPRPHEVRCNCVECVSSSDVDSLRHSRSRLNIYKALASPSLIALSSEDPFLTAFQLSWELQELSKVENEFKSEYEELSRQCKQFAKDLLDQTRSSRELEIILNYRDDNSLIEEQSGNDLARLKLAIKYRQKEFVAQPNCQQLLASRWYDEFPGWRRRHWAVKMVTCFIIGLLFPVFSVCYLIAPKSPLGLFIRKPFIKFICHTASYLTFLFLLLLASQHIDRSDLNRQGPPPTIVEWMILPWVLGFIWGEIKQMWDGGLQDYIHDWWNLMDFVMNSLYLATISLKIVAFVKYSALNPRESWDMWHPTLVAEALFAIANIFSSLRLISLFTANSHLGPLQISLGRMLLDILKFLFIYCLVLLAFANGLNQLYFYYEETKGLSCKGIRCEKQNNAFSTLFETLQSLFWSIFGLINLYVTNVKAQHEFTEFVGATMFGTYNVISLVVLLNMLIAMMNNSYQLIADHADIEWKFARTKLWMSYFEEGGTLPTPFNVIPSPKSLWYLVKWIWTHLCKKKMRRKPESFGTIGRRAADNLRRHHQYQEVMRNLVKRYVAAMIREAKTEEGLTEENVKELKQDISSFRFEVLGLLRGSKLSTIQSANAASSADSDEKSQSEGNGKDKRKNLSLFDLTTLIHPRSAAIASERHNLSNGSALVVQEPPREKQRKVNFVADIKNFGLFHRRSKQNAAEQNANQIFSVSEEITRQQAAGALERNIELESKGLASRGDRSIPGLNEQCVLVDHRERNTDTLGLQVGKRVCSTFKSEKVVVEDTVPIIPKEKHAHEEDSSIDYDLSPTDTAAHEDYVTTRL

[3] = biological target: Melanin-concentrating hormone receptor 1 (Homo sapiens, UniProt Q99705); assay: Fluorescence-based counterscreen for antagonists of the G-protein coupled receptor 7 (GPR7): cell-based high throughput dose response assay to identify antagonists of the melanin-concentrating hormone receptor 1 (MCHR1).; type: functional
[4] = system: Streptococcus sp. 'group A'; assay: growth inhibition of control SK(-) GAS strain, dose response, counter-screen for streptokinase expression inhibitor project, luminescence, kanamycin, BacTiterGlo, confirmation (AID 1900); type: functional, organism-based
Streptococcus [5] = assay: Group A Streptococcus viability loss, dose response, counter-screen for streptokinase expression inhibitor project, luminescence, BacTiterGlo (AID 1915); type: functional, organism-based;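 further: potency for reduction of bacterial viability or growth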
Streptokinase A = biological target: T2, Streptokinase A (Streptococcus pyogenes serotype M1, UniProt P10520); assay: S. pyogenes streptokinase expression inhibitors, potency, dose response, plasminogen activation absorbance, OD405 (AID 1914); type: functional, Streptococcus pyogenes M1 GAS;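 further: secreted streptokinase activity via plasminogen activation per viability signal from cell pellet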
T2 sequence (P10520 whole entry): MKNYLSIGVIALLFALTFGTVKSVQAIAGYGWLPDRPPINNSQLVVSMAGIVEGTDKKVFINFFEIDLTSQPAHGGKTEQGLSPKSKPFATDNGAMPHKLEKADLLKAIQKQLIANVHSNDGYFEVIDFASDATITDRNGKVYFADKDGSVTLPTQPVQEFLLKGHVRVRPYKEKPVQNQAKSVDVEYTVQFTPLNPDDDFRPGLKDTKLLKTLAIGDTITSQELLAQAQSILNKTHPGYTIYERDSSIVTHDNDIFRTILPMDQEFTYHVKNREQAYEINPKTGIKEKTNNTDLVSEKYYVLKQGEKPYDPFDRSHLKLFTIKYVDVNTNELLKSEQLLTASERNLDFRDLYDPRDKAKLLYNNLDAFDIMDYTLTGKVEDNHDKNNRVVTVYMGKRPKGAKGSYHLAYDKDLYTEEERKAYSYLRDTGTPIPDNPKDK

Streptococcus [6] = assay: Luminescence Microorganism-Based Dose Response Follow up to Identify Compounds Cytotoxic to Streptococcus. [Related pubchem assays: 1677 (Project Summary), 1915, 1914, 1902 (Retest at Dose), 1900 (Counter Screen), 1662 (Primary HTS)]; type: functional, organism-based
Protein skinhead-1 = biological target: T3, Protein skinhead-1 (Caenorhabditis elegans, UniProt P34707); type: functional
T3 sequence (P34707 whole entry): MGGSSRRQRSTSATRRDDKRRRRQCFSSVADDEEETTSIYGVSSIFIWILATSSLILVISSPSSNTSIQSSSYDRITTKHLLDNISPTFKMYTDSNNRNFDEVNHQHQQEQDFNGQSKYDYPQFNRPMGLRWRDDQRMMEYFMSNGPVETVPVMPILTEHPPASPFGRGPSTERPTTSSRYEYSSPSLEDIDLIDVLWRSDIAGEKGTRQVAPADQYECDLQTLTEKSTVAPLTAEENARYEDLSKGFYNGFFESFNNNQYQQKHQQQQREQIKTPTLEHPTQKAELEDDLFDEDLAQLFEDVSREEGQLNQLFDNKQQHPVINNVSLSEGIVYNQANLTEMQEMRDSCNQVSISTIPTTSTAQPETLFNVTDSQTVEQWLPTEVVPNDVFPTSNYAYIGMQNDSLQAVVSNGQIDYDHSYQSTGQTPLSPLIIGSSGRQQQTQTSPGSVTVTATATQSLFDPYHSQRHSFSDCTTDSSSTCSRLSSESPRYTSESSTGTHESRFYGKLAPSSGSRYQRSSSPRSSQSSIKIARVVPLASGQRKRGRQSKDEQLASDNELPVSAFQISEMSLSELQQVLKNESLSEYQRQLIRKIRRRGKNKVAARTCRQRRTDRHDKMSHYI

[7] = Counterscreen for IDE inhibitors: Luminescence-based cell-based high throughput dose response assay to identify compounds that are cytotoxic to HEK cells. [Related pubchem assays: 434962 (Primary screen (IDE inhibitors in singlicate)), 449730 (Counterscreen (Cytotoxicity in triplicate)), 435028 (Confirmation (IDE inhibitors in triplicate)) …; type: functional; details: HEK293
Insulin-degrading enzyme = biological target: T4, Insulin-degrading enzyme (Homo sapiens, UniProt P14735); assay: Dose Response: Fluorescence polarization-based cell-based high throughput dose response assay for inhibitors of insulin-degrading enzyme (IDE). [Related pubchem assays: 434962 (Primary screen (IDE inhibitors in singlicate)), 449730 (Counterscreen (Cytotoxicity in triplicate)), 435028 (Confirmation (IDE inhibitors in triplicate)), 434984 (Summary …; type: functional
T4 sequence (P14735 whole entry): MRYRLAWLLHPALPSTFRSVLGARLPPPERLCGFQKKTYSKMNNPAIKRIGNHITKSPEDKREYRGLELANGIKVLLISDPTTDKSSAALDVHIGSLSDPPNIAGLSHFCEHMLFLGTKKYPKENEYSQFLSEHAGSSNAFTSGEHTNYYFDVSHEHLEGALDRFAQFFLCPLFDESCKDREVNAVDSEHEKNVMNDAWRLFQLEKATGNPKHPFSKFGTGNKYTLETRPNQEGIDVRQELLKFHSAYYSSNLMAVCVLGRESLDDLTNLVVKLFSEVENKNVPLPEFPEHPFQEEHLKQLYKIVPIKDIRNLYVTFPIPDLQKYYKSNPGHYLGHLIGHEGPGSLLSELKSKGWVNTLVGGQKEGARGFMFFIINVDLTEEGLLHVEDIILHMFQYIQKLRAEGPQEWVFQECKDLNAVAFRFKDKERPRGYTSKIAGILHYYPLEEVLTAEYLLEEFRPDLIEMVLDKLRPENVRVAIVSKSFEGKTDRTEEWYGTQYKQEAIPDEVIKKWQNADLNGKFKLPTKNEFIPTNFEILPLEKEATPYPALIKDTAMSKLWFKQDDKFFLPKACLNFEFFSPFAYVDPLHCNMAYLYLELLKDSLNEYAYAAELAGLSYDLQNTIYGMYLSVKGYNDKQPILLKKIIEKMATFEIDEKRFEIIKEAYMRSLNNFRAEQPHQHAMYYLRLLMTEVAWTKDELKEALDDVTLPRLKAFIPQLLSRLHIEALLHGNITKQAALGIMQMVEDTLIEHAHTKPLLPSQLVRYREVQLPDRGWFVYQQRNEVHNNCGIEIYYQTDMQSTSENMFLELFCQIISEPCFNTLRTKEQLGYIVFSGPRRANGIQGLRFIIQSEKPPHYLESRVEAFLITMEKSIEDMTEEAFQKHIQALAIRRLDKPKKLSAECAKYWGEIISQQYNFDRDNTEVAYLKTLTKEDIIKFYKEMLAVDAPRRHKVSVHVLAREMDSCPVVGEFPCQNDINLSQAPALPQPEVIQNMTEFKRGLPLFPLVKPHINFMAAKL

[8] = control 3'UTR Renilla luciferase suppression, dose response, counter-screen for Shn3 inhibitor project, cell-based, Clone20-Shn3RL, cherry-picked (AID 624133); type: functional
[9] = Shn3 3'UTR reporter inhibitors, dose response, cell-based, Clone20 osteoblasts, firefly luciferase, cherry-picked (AID 624132); type: functional;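 further: firefly luciferase luminescence from reporter carrying the Shn3 3'UTR in osteoblasts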
[10] = Luminescence Cell-Based Dose Retest to Confirm Inhibitors of Cancer Stem Cells. [Related pubchem assays (depositor defined):AID2717, AID2721]; type: functional; details: Homo sapiens
HeLa = assay: HeLa cell cytotoxicity, dose response, cytotoxicity control, 24 h, cherry-picked samples (AID 504726); type: functional, cell-based; details: Homo sapiens;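 further: potency for cytotoxicity as loss of luminescence signal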
Hexokinase = Hexokinase (Trypanosoma brucei, UniProt Q38C41); assay: Confirmation assay for inhibitors of Trypanosoma brucei hexokinase 1-Analogue-first series. [Related pubchem assays (depositor defined):AID1430, AID1632, AID2516, AID2560, AID2579, AID2600, AID449725, AID492951]; type: functional
Chain of Hexokinase (Q38C41 whole entry): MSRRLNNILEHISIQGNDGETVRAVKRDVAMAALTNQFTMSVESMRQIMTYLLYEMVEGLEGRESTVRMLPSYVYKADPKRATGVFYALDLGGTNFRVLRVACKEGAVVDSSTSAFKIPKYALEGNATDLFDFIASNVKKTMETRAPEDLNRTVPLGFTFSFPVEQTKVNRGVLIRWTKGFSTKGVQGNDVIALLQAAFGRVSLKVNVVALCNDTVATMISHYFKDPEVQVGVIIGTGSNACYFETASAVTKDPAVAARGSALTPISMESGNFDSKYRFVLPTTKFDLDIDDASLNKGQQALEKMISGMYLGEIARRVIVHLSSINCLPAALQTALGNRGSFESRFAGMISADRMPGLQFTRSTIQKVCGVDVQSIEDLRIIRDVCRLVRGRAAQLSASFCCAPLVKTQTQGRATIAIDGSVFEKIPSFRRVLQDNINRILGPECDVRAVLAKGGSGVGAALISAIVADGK

Chain of Intestinal-type alkaline phosphatase (P09923 whole entry): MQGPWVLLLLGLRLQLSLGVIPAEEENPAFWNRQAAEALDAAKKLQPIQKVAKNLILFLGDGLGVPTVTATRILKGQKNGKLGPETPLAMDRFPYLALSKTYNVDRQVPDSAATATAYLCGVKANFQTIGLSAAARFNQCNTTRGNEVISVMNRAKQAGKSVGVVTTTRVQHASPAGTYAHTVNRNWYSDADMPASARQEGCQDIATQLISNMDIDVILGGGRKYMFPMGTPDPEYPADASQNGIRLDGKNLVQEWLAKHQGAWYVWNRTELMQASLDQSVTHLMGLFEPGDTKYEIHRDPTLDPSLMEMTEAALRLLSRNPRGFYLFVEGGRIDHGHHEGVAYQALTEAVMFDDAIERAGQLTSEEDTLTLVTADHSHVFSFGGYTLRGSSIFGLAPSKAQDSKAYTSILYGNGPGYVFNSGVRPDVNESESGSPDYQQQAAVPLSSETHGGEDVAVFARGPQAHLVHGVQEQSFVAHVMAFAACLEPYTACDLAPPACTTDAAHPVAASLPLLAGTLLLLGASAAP
Chain of Melanin-concentrating hormone receptor 1 (Q99705 whole entry): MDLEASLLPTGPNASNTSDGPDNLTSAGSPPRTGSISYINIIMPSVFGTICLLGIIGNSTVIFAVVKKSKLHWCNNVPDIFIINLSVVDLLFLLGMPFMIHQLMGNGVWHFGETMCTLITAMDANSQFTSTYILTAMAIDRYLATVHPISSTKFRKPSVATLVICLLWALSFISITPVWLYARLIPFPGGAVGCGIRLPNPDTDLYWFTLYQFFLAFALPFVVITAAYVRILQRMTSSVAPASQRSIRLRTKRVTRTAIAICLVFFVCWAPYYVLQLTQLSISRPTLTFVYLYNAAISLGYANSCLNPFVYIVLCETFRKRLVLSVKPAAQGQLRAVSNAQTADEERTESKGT

Cc1ccc(NC(=O)c2ccncc2)cc1[N+](=O)[O-]
IC50 [1]: > 100 µM (inactive)

O=C(Nc1cccc(Cl)c1)N1CCN(C/C=C/c2ccccc2)CC1
EC50 [2]: 0.12 µM (active)

CC(C)Cc1cc(C(=O)N2CCCC(CO)(Cc3ccc(F)cc3F)C2)[nH]n1 (configuration not stated)
IC50 [3]: 33 µM (not active)

Cc1noc(C)c1CSc1nc2sc(C)c(C)c2c(=O)n1C1CCCC1
EC50 [4]: 5.22 µM (active) | EC50 (Streptococcus [5]): > 150 µM (not active) | EC50 (Streptokinase A): 3.31 µM (active) | EC50 (Streptococcus [6]): > 500 µM (not active)

CC(OC(=O)/C(C#N)=C/c1ccc(N(C)C)cc1)C(=O)N(C)c1ccccc1 (configuration not stated)
IC50 (Protein skinhead-1): > 100 µM (inactive) | IC50 [7]: 40.3 µM (not active) | IC50 (Insulin-degrading enzyme): 21.4 µM (not active)

Cc1ccc(-c2nnc(N3CCC(C)CC3)c3ccccc23)cc1C
AC50 [8]: 8.42 µM (active) | AC50 [9]: 6.41 µM (active) | AC50 [10]: 4.62 µM (active) | EC50 [2]: 3.35 µM (active)

CCc1sc(C(=O)NNC(=O)CNC(=O)c2ccccc2F)cc1C
AC50 (HeLa): 73 µM (active)

O=C(CSc1ccccc1)N1c2ccccc2Sc2ccccc21
EC50 (Streptococcus [6]): 239 µM (active)

COc1ccc(C(=O)Nc2cc(F)cc(F)c2O)cc1
IC50 (Hexokinase): > 25 µM (inactive)
